Test [1] has as its target Serine/threonine-protein kinase mTOR (Homo sapiens, UniProt P42345). Description: Inhibition of human mTOR measured after 30 mins in presence of ATP by Lanthascreen TR-FRET assay.
The target of test [2] is Phosphatidylinositol 4,5-bisphosphate 3-kinase catalytic subunit alpha isoform (Homo sapiens, UniProt P42336). Put plainly: Inhibition of PI3K alpha (unknown origin).
Chain of Phosphatidylinositol 4,5-bisphosphate 3-kinase catalytic subunit alpha isoform (P42336 whole entry, canonical isoform): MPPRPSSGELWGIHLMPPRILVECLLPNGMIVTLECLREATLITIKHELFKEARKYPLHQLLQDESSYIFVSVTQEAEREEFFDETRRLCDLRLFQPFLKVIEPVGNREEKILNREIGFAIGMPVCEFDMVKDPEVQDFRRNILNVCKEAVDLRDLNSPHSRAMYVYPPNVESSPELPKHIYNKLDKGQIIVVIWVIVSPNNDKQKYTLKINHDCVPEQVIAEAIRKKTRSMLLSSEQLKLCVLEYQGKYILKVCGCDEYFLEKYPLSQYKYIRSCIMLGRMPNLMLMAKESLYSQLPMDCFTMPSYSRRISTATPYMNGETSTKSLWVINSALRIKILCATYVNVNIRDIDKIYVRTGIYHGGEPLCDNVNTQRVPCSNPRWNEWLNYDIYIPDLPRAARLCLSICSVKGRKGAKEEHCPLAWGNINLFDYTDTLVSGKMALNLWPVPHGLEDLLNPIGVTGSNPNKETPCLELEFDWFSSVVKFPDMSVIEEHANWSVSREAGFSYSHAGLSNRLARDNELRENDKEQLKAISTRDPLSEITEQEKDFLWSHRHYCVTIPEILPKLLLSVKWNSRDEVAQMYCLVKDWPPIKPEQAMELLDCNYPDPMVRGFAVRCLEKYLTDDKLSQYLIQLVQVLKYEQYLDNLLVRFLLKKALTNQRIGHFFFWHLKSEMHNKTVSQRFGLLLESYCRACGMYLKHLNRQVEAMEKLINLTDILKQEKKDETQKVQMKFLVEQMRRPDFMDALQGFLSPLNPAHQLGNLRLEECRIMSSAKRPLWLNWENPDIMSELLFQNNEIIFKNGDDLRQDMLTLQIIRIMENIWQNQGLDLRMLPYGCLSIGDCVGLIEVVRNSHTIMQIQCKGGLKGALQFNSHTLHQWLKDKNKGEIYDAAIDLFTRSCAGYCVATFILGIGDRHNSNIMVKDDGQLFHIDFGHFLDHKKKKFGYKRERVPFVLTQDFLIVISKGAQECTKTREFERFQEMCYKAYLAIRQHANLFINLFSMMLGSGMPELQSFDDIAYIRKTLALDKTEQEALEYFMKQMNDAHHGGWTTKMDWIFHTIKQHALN

Broadly, the IC50 is the midpoint of a concentration-inhibition curve. Turning to `CNC(=O)Nc1ccc(-c2ncc3c(n2)N2CCOCC2C(=O)N3)cc1` (configuration not stated), the half-inhibitory concentration (IC50) in test [1] was 316 nM; in test [2], 31.6 nM.
With `O=C(Nc1ccc(-c2nc(N3CCOCC3)c3c(n2)C2(CC2)OC3)cc1)NC1CC1`, in test [1], the 50% inhibitory concentration (IC50) was < 31.6 nM.
`CNC(=O)Nc1ccc(-c2ncc3c(n2)N2CCOCC2CO3)cc1` (configuration not stated): the IC50 in test [1] is 501 nM; in test [2], 50.1 nM.
On the same counts, the results for `CNC(=O)Nc1ccc(-c2nc(C)c3nc4n(c3n2)CCOC4)cc1` are 5010 nM and 5010 nM.

The values above are taken from ChEMBL document CHEMBL4359925, “Rational discovery of a highly novel and selective mTOR inhibitor” (Bioorg Med Chem Lett, 2019).
